Counter-ions that a name gives are not always drawn.
Columns and labels:
delta receptor = molecular target: T1, delta receptor (Mus musculus, UniProt P32300); test: cAMP bioassay in NG108-15 cells (inhibition of forskolin-stimulated cAMP); type: cell-based
T1 construct: endogenous in cells; host or cells: NG108-15 cells
Protocol: The delta agonistlantagonist activity of the compounds of the present invention is determined in the cAMP bioassay in NG108-15 cell lines as described below.
NG 108-15 cell were grown at 37° C. in humidified atmosphere of 5% CO2 and 95% air in DMEM (without sodium pyruvate using 4500 mg/l glucose) supplemented with 10% foetal calf serum containing 2 mM glutamine, 2% HAT×50 supplement, 50 μg streptomycin and 50 I.U. penicillin per ml confluent cells were harvested with […] in Ca/Mg-free phosphate-buffered saline with mechanical stiring. Medium was replaced every 2 day. One day before the experiment the cells were dispensed in 17 mm culture plate (about 10×10^6 cells/plate). After 1 day, the growth medium was removed and cells washed twice with a modified Krebs-Ringer medium buffered with hepes-NaOH 200 mM, pH 7.4, that contained (mmol/l): NaCl (125), KCl (5), KH2PO4 (0.4), MgSO4 and CaCl2 (1.2) NaHCO3 (25), glucose (12). Incubation medium was also including 1 mM 3-isobuthyl-1-methylxantine (IBMX). Experiments were performed at room temperature. After incubation for 10 minutes to allow IBMX incorporation, NG108-15 cells were exposed to 1 μM forskolin and the compound to be tested, for 10 minutes. […] The pellets from the original plates were dissolved in NaOH 0.5N and the protein content was determined with the method described by Bradfort (Anal. Biochem. 1976, 72, 248). […]

mu opioid receptor = molecular target: T2, mu opioid receptor (Mus musculus, UniProt P42866); test: radioligand binding, mu ligand [3H]-DAMGO, mouse brain membranes; conditions: selectivity ratio
T2 construct: Mouse brain membranes were prepared as described by Kosterlitz; from tissue; host or cells: mouse brain membranes
Protocol: (§1) The activity of the compounds of the present invention as selective delta ligands is determined in radioligand binding assays as described below.
(§2) Mouse brain membranes were prepared as described by Kosterlitz (Br. J. Pharmacol., 1981, 73, 939.). The binding of the preferential delta ligand [^3H]-[D-Ala^2,D-Leu^5]-enkephalin (DADLE) was evaluated at its KD concentration (1.3 nM) in presence of 40 nM of the unlabelled mu ligand [D-Ala^2, MePhe^4, Gly-ol^5]-enkephalin (DAMGO). The binding of the mu ligand [^3H]-DAMGO (Eur. J. Pharmacol., 1989, 166, 213) and of the kappa ligand [^3H]-U69593 (Excerpta Medica, 1990, 211) were carried out at 0.5 nM. The non-specific binding was determined in presence of naloxone (10 μM) for all tritiated ligands. Binding data were expressed as percentage of inhibition and fitted the following equation: f(x)=100·X/(IC50+X) where X are cold drug concentration values. The IC50 obtained were used to calculate the inhibitory constants (Ki) accordingly to the Cheng and Prusoff relation (Biochem. Pharmacol., 1973, 22, 3099).

kappa opioid receptor = molecular target: T3, kappa opioid receptor (Mus musculus, UniProt P33534); test: radioligand binding, kappa ligand [3H]-U69593, mouse brain membranes; conditions: selectivity ratio
T3 construct: Mouse brain membranes were prepared as described by Kosterlitz; from tissue; host or cells: mouse brain membranes
Protocol: as §1, §2

T1 sequence (P32300 whole entry): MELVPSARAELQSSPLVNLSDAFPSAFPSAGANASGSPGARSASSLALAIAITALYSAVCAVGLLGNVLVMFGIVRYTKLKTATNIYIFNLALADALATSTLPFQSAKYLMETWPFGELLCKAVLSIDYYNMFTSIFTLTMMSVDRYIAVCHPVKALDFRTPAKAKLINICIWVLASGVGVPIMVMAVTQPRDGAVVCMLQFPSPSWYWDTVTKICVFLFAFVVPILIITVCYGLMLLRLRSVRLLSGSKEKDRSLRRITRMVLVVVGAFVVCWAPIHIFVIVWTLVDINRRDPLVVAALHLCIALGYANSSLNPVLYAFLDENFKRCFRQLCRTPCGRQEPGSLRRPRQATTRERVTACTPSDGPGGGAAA
T3 sequence (P33534 whole entry): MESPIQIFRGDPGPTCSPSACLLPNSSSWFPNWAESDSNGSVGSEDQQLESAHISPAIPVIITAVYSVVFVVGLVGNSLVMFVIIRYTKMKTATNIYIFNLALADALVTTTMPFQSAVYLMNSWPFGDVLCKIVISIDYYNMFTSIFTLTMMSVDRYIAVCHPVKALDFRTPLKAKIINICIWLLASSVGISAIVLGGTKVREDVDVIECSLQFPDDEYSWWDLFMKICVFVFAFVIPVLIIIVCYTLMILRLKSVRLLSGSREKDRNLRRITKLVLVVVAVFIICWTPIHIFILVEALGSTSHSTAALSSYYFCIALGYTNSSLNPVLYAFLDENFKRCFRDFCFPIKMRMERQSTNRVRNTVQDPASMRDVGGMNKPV
T2 sequence (P42866 whole entry): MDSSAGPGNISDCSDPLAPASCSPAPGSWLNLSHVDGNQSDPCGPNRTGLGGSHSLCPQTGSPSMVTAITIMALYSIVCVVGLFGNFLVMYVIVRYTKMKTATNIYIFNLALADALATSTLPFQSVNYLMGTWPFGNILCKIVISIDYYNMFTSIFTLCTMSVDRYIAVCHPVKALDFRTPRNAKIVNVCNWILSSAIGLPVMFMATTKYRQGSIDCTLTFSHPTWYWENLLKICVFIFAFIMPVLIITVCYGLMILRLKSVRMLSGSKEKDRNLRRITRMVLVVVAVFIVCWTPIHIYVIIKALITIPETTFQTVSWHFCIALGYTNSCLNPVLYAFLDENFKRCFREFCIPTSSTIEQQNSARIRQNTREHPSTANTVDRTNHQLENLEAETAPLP

SMILES | IC50 (delta receptor) | antagonism of the agonist activity by the selective delta antagonist naltrindole (delta receptor; NG108-15 cells, naltrindole 100 nM) | Ki mu/Ki delta (mu opioid receptor) | melting point | Ki kappa/Ki delta (kappa opioid receptor)
COc1ccc2c3c1O[C@H]1c4[nH]c(C(=O)N(Cc5ccccc5)C(C)C)c(C)c4C[C@H]4[C@@H](C2)N(C)CC[C@]314 [Example 1, [R-(4bS*,8α,s8aβp,12βp)]11(N-N-benzylN-isopropylaminocarbonyl)-7,10dimethyl-1-methoxy-5,6,7,8,12,12b-hexahydro-(9H){4,8methanobenzofuro[3,2]pyrrolo[2,3-g]soquinoline hydrochloride] | 15 nM | completely antagonised |  |  | 
CCOC(=O)c1[nH]c2c(c1C(F)(F)F)C[C@H]1[C@H]3Cc4ccc(OC)c5c4[C@@]1(CCN3C)[C@H]2O5 [Example 10] |  |  | 840 | 174 °C | 600
